Measured values as given in patent US10517889B2, “Modulators of SMAD7 expression” (Ionis Pharmaceuticals, Inc., priority 2017, dated 2019).
Where “and” joins values, the source holds several entries; their conditions need not be identical. Equal values may be shown once. Strand notation (5' to 3'): a small letter for the sugar, then the base; units joined by * are phosphorothioate-linked, units joined directly phosphodiester-linked; [ ] holds rarer units or linkages, { } end groups; capitals alone tell only the bases. k = constrained ethyl (cEt); [5mC] = 5-methylcytosine; d = 2'-deoxy (DNA)

How the values were obtained:
[1] = test system: human SMAD7 mRNA; test: Dose-dependent inhibition of human SMAD7 mRNA expression in Hep3B cells (Example 3, Study 1 and 2); assay type: cell-based; conditions: electroporation; for % inhibition of SMAD7 mRNA expression: approximately 16 hours; for IC50: Study 2 (740-20000 nM)
Summary of the method: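 Hep3B cells, 20,000 per well, electroporated with antisense oligonucleotide at 0.31, 1.25, 5.00 or 20.00 μM (first series) or 0.74, 2.22, 6.67 or 20.00 μM (second series). After ~16 h, SMAD7 mRNA measured by RT-qPCR (RTS5062), normalised to RIBOGREEN total RNA. Percent inhibition vs untreated cells; IC50 derived.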

[2] = test system: human SMAD7 mRNA; test: Antisense inhibition of human SMAD7 mRNA expression in Hep3B cells by 3-10-3 cEt gapmers, 10,000 nM, electroporation (Example 2); assay type: cell-based; conditions: approximately 24 hours
Summary of the method: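 Hep3B, 20,000 cells/well; electroporation, 10,000 nM ASO; ~24 h. Readout: SMAD7 mRNA by qRT-PCR (RTS5062), RIBOGREEN-normalised; % inhibition vs untreated.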

[3] = 740 nM, Study 2, relative to untreated control cells
[4] = Hep3B cells, electroporation with 10,000 nM antisense oligonucleotide, primer probe set RTS5062, relative to untreated control cells
[5] = Hep3B cells, electroporation with 10,000 nM antisense oligonucleotide, SMAD7 mRNA by RT-PCR (RTS5062), relative to untreated control cells
[6] = SMAD7 mRNA, Hep3B cells, 10,000 nM antisense oligonucleotide, electroporation, primer probe set RTS5062, relative to untreated control cells
[7] = Hep3B cells, electroporation with 10,000 nM antisense oligonucleotide, RTS5062, percent inhibition of SMAD7 mRNA relative to untreated control cells
[8] = Hep3B cells, 10,000 nM antisense oligonucleotide, electroporation, RT-PCR primer probe set RTS5062, relative to untreated control cells
[9] = Hep3B cells, electroporation, 10,000 nM antisense oligonucleotide, RTS5062, relative to untreated control cells

Substance	% inhibition of SMAD7 mRNA expression [1, 3] [%]	% inhibition of SMAD7 mRNA expression ([1]; 2220 nM, Study 2) [%]	% inhibition of SMAD7 mRNA expression ([1]; 6670.0 nM, Study 2) [%]	% inhibition of SMAD7 mRNA expression ([1]; 20000.0 nM, Study 2)	IC50 [1] [µM]	% inhibition of SMAD7 mRNA expression [2, 4] [%]	% Inhibition [2, 5] [%]	% Inhibition [2, 4] [%]	% Inhibition [2, 6] [%]	% Inhibition [2, 7] [%]	% Inhibition [2, 8] [%]	% inhibition of SMAD7 mRNA expression [2, 9] [%]	% inhibition of SMAD7 mRNA expression ([2]; Hep3B cells, electroporation, 10,000 nM, 3-10-3 cEt gapmers targeting SEQ ID NO: 3 and 4) [%]
799366 (antisense kT*k[5mC]*kT*d[5mC]*d[5mC]*dG*dA*dG*dT*dT*dA*dT*d[5mC]*k[5mC]*k[5mC]*k[5mC]) [compound 799366]	18	39	64	76%	8	70							
799089 (antisense kA*kG*k[5mC]*dA*dA*dT*dA*d[5mC]*dT*dG*dT*dG*dA*kG*kG*kG) [compound 799089]	12	40	61	76%	7	60							
798686 (antisense kG*kA*kG*dG*dA*dG*dG*d[5mC]*dG*dA*dG*dG*dA*kG*kA*kA) [compound 798686]	0	0	2	33%	5	59							
830138 (antisense kG*kG*kA*dG*dT*dT*dG*d[5mC]*dA*dT*dG*d[5mC]*d[5mC]*kT*kT*kT) [compound 830138]	0	40	61	87%	5		71						
799159 (antisense kG*kT*kG*dT*dA*dT*dG*dA*dG*dT*dT*dG*dT*kA*kG*kA) [compound 799159]	43	55	78	90%	19			56					
830095 (kT*kG*kA*dG*dT*dA*dA*dA*d[5mC]*dA*dA*dT*dA*k[5mC]*k[5mC]*k[5mC]; antisense) [compound 830095]	3	37	42	60%	2		73						
799322 (antisense kG*kG*kA*dG*dG*dG*dT*dA*dT*dG*d[5mC]*dA*d[5mC]*kA*k[5mC]*kT) [compound 799322]	89	90	96	96%	2	83							
772553 (antisense kT*k[5mC]*kT*dT*dG*dA*dG*d[5mC]*dA*d[5mC]*d[5mC]*dG*dA*kG*kT*kG) [compound 772553]	36	45	71	89%	2				59				
800109 (antisense kA*k[5mC]*kA*dG*d[5mC]*d[5mC]*dA*d[5mC]*dA*dA*dG*dT*d[5mC]*kA*k[5mC]*kA) [compound 800109]				71% and 67% and 93% and 97%	1	75	86		88				
799318 (antisense kG*kT*kG*dG*dA*dT*dT*dT*dG*dA*dA*dA*dA*kG*kG*kG) [compound 799318]	12	40	70	75%	11					58			
799364 (kT*k[5mC]*k[5mC]*dG*dA*dG*dT*dT*dA*dT*d[5mC]*d[5mC]*d[5mC]*k[5mC]*kA*kT; antisense) [compound 799364]	39	54	67	88%	3	73							
799708 (antisense k[5mC]*kA*kA*dA*d[5mC]*dT*dT*dG*dT*dG*dG*dT*dA*kA*kA*kA) [compound 799708]	15	35	52	79%	11					60			
799878 (kG*k[5mC]*k[5mC]*d[5mC]*d[5mC]*d[5mC]*d[5mC]*dT*d[5mC]*d[5mC]*d[5mC]*d[5mC]*dG*kT*kG*k[5mC]; antisense) [compound 799878]	35	64	68	84%	17						70		
799589 (kA*kA*kT*dA*dT*d[5mC]*dT*dG*dT*dG*dT*d[5mC]*dT*kA*k[5mC]*kA; antisense) [compound 799589]	15	58	77	82%	4					65			
799791 (kG*kG*kG*dA*dG*dA*d[5mC]*d[5mC]*dT*dA*d[5mC]*d[5mC]*dT*k[5mC]*kT*kG; antisense) [compound 799791]	11	4	29	60%	6							56	
799556 (kA*k[5mC]*kA*dA*d[5mC]*dA*dA*dT*dG*d[5mC]*dT*d[5mC]*dT*kG*kG*k[5mC]; antisense) [compound 799556]	0	50	71	71%	2							68	
799671 (antisense kA*kG*kG*dT*dA*dT*dT*dT*dT*dT*dG*dA*dA*kG*kG*k[5mC]) [compound 799671]	22	56	71	74%	2					59			
800010 (kG*kT*kT*dA*dT*dT*dT*dA*dA*dT*dT*dA*d[5mC]*k[5mC]*k[5mC]*kT; antisense) [compound 800010]	33	13	47	59%	6						69		
829942 (kG*k[5mC]*kA*dT*d[5mC]*dT*dG*dG*dA*d[5mC]*dA*dG*dT*k[5mC]*kA*kG; antisense) [compound 829942]	44	70	84	94%	< 0.7								92
